Values after ≈ are worked out from the molar mass of the structure shown.
Tests used:
[1] = Aqueous solubility of compound in pH 7.4 PBS buffer at 200 uM; assay type: physicochemical
in vitro = conditions: human, liver microsomes
[2] = Permeability of compound across basolateral to apical side in human Caco-2 cells at pH 7.4; assay type: ADME, cell-based; conditions: Caco-2, pH 7.4, read-out: permeability
[3] = molecular target: T1, 5-hydroxytryptamine receptor 1A (Homo sapiens) (UniProt P08908); assay: Biased agonist activity at Gal4-VP16 transcription factor linked human 5-HT1A receptor expressed in human U2OS cells assessed as stimulation of beta-arrestin recruitment measured after 5 hrs by Tango assay relative to serotonin; assay type: cell-based
T1 sequence (whole entry): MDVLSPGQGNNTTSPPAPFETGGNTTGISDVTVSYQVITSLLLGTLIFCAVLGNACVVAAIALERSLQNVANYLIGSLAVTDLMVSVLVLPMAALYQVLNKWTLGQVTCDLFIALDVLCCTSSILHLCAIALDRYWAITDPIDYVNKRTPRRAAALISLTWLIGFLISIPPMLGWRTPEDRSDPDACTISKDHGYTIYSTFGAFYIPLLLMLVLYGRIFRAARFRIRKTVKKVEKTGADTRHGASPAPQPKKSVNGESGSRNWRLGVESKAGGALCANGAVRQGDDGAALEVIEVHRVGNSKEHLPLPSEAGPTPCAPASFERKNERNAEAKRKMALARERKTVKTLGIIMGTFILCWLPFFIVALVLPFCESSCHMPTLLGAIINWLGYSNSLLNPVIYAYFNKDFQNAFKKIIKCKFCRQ

[4] = molecular target: T1, 5-hydroxytryptamine receptor 1A (Homo sapiens); assay: Biased agonist activity at human recombinant 5-HT1A receptor stably expressed in CHO-K1 cells assessed as increase in calcium mobilization measured at 2 sec intervals for 180 secs by Fluo-4AM dye based fluorescence assay relative to serotonin; assay type: functional, cell-based; conditions: filed as partial agonist, time 180.0 sec
[5] = molecular target: T1, 5-hydroxytryptamine receptor 1A (Homo sapiens); assay: Biased agonist activity at human recombinant 5-HT1A receptor stably expressed in CHO-K1 cells assessed as increase in ERK1/2 phosphorylation levels incubated for 15 mins by Alphalisa assay relative to serotonin; assay type: cell-based
[6] = molecular target: T1, 5-hydroxytryptamine receptor 1A (Homo sapiens); assay: Biased agonist activity at human recombinant 5-HT1A receptor stably expressed in CHO-K1 cells assessed as inhibition of forskolin-induced cAMP accumulation after 40 mins by LANCE Ultra cAMP kit-based TR-FRET assay relative to serotonin; assay type: functional, cell-based
Rattus norvegicus [7] = assay: Antidepressant-like activity in Wistar rat assessed as minimum effective dose causing reduction in immobility time administered intraperitoneally with compound 60 mins prior to testing and measured for 5 mins test period by Porsolt-forced swim test; assay type: functional; conditions: ip, 1.083 h, time 65 min, read-out: MED
Rattus norvegicus [8] = assay: Antidepressant-like activity in Wistar rat assessed as reduction in immobility time at 10 mg/kg, ip administered 60 mins prior to testing and measured for 5 mins test period by Porsolt-forced swim test; assay type: functional; parameters: scale not given: the % may be the effect or the level left; conditions: time 65 min, 1.083 h
[9] = molecular target: T2, Adrenergic receptor alpha-1 (Rattus norvegicus, UniProt P15823+P23944+P43140); assay: Displacement of [3H]-prazosin from alpha1 adrenergic receptor in rat cortex measured after 30 mins by microbeta2 scintillation counting method; assay type: tissue-based
T2 sequence (P15823 whole entry): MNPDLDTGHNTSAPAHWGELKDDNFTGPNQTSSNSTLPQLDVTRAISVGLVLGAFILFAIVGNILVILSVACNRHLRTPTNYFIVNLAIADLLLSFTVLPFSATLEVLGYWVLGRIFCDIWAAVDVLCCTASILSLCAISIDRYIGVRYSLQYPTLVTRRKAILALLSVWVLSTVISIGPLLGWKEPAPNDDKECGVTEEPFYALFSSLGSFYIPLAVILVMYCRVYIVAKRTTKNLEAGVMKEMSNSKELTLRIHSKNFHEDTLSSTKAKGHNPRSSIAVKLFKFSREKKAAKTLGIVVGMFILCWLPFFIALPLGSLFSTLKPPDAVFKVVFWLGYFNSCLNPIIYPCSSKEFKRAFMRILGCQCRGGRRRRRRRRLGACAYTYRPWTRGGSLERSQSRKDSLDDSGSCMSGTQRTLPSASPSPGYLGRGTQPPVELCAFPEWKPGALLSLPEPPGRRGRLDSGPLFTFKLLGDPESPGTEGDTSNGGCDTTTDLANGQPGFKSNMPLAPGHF
T2 sequence (P23944 whole entry): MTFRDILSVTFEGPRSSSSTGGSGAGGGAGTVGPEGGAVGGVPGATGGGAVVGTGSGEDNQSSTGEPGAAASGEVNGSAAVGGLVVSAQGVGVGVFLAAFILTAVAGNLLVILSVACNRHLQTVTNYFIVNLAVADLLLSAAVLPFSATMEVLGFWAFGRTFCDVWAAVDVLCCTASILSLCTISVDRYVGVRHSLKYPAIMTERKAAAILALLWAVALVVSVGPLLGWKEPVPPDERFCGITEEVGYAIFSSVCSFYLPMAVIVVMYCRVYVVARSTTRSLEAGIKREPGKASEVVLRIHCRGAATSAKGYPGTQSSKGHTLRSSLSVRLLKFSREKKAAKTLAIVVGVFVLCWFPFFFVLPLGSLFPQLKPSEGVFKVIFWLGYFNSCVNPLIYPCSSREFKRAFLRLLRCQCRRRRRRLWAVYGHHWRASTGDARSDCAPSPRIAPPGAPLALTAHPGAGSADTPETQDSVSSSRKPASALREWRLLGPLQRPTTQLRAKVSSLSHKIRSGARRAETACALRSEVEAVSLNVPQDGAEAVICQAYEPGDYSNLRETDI
T2 sequence (P43140 whole entry): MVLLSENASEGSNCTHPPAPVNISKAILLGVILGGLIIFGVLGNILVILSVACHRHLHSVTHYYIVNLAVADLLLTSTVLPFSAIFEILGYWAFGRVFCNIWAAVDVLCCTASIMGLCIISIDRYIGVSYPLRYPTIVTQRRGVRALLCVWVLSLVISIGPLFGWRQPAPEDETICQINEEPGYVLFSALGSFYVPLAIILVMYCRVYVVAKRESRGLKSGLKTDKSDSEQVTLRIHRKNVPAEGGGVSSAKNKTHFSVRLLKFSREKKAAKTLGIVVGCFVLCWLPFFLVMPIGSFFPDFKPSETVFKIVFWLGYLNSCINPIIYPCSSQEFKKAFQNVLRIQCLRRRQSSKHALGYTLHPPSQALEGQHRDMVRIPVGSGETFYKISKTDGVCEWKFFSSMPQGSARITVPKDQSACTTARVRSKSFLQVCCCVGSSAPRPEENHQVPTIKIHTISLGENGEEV

[10] = molecular target: T3, 5-hydroxytryptamine receptor 1A (Homo sapiens, UniProt P08908); assay: Displacement of [3H]8-OH-DPAT from recombinant human 5HT1A receptor stably expressed in CHO-K1 cell membranes measured after 60 mins by microbeta2 scintillation counting method; parameters: species or system Cell membrane
T3 sequence (P08908 whole entry): T1 sequence (whole entry)

D(2) dopamine receptor = D(2) dopamine receptor (Homo sapiens, UniProt P14416); assay: Displacement of [3H]-methylspiperone from recombinant human D2 receptor stably expressed in CHO-K1 cell membranes measured after 60 mins by microbeta2 scintillation counting method; parameters: species or system Cell membrane
Sequence of D(2) dopamine receptor (P14416 whole entry): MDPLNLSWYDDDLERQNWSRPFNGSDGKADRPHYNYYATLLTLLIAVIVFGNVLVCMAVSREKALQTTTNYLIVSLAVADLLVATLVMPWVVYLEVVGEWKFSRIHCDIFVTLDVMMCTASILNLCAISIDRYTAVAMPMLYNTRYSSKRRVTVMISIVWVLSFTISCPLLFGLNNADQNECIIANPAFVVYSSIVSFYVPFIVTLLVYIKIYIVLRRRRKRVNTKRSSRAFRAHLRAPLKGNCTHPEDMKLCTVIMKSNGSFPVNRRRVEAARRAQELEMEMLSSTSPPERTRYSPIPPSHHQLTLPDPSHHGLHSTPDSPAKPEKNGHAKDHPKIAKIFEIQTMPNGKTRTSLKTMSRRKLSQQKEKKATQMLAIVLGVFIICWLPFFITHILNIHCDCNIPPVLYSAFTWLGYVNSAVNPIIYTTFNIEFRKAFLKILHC

Rattus norvegicus [11] = assay: Antidepressant-like activity in Wistar rat assessed as reduction in immobility time at 15 mg/kg, ip administered 60 mins prior to testing and measured for 5 mins test period by Porsolt-forced swim test; assay type: functional; parameters: scale not given: the % may be the effect or the level left; conditions: time 65 min, 1.083 h
[12] = molecular target: T3, 5-hydroxytryptamine receptor 1A; assay: Biased agonist activity at human recombinant 5-HT1A receptor stably expressed in CHO-K1 cells assessed as increase in calcium mobilization measured at 2 sec intervals for 180 secs by Fluo-4AM dye based fluorescence assay; assay type: functional, cell-based
[13] = molecular target: T3, 5-hydroxytryptamine receptor 1A; assay: Biased agonist activity at human recombinant 5-HT1A receptor stably expressed in CHO-K1 cells assessed as increase in ERK1/2 phosphorylation levels incubated for 15 mins by Alphalisa assay; assay type: cell-based
Rattus norvegicus [14] = assay: Antidepressant-like activity in Wistar rat assessed as minimum effective dose causing reduction in immobility time after oral administration with compound 60 mins prior to testing and measured for 5 mins test period by Porsolt-forced swim test; assay type: functional; conditions: 1.083 h, time 65 min, read-out: MED
[15] = molecular target: T3, 5-hydroxytryptamine receptor 1A; assay: Biased agonist activity at human recombinant 5-HT1A receptor stably expressed in CHO-K1 cells assessed as inhibition of forskolin-induced cAMP accumulation after 40 mins by LANCE Ultra cAMP kit-based TR-FRET assay; assay type: functional, cell-based
Rattus norvegicus [16] = assay: Antidepressant-like activity in Wistar rat assessed as maximum effective dose causing reduction in immobility time after oral administration with compound 60 mins prior to testing and measured for 5 mins test period by Porsolt-forced swim test; assay type: functional; conditions: time 65 min; 1.083 h

Work on `COCCc1ccc(OCC(O)CNC(C)C)cc1` (stereo unspecified) [METOPROLOL] yielded a solubility at 200 µM [1] of 181 µM (≈ 48.3 µg/mL).
Molecule `CC(C)NCC(O)COc1cccc2ccccc12` (stereo unspecified) [PROPRANOLOL] has a half-life at 0.1 µM (in vitro) greater than 1 h and a Papp B→A [2] of 27.4 ×10⁻⁶ cm/s.
Work on `O=C(c1ccc(F)c(Cl)c1)N1CCC(F)(CNCCSc2ccccn2)CC1` yielded an Emax ([3]; filed as agonist) of 102%, an Emax [4] of 73% and an Emax ([5]; filed as agonist) of 84%. The Emax ([6]; filed as agonist) was 76%.
Work on `CN(C)CCCN1c2ccccc2CCc2ccccc21` [IMIPRAMINE] yielded a minimal effective dose (Rattus norvegicus [7]) of 10 mg/kg and an Activity (Rattus norvegicus [8]) of 25%.
In the case of `O=C(c1ccc(F)c(Cl)c1)N1CCC(F)(CNCCOc2cncnc2)CC1`, the pKi [9] is reported as less than 6, the Ki [10] is reported as 209 nM and the Ki (D(2) dopamine receptor) is reported as greater than 1000 nM.
`CNC1(c2ccccc2Cl)CCCCC1=O` (stereo unspecified) [KETAMINE] gave a minimal effective dose (Rattus norvegicus [7]) of 5 mg/kg and an Activity (Rattus norvegicus [11]) of 43%.
With `Cc1cnc(OCCNCC2(F)CCN(C(=O)c3ccc(F)c(Cl)c3)CC2)nc1` the Emax ([3]; filed as partial agonist) was 75%, the pKi [9] was less than 6 and the Emax ([5]; filed as partial agonist) was 72%. For the same molecule, the Emax ([6]; filed as partial agonist) was 41%.
`O=C(c1ccc(F)c(Cl)c1)N1CCC(F)(CNCCOc2ccncc2)CC1` showed a pKi [9] of less than 6, a Ki [10] of 389 nM and a Ki (D(2) dopamine receptor) greater than 1000 nM.
For `O=C(c1ccc(F)c(Cl)c1)N1CCC(F)(CNCCCc2ccccc2)CC1`, the Emax ([3]; filed as agonist) was 99%, the Emax [4] was 74% and the pKi [9] was less than 6. For the same molecule, the Emax ([5]; filed as agonist) was 77% and the Emax ([6]; filed as agonist) was 91%.
With `Cc1cnc(CNCC2(F)CCN(C(=O)c3ccc(F)c(Cl)c3)CC2)nc1` the EC50 [12] was 245 nM, the EC50 [13] was 4.68 nM and the minimal effective dose (Rattus norvegicus [14]) was 0.63 mg/kg. For the same molecule, the EC50 [15] was 60.3 nM, the ED (Rattus norvegicus [16]) was 5 mg/kg and the Ki [10] was 2.19 nM. The Ki (D(2) dopamine receptor) was greater than 1000 nM.
For `O=C(c1ccc(F)c(Cl)c1)N1CCC(F)(CNCCNc2ccccn2)CC1`, the Emax ([3]; filed as agonist) was 99%, the Emax [4] was 52% and the Emax ([6]; filed as agonist) was 86%.

— ChEMBL document CHEMBL4706479, “Novel Aryloxyethyl Derivatives of 1-(1-Benzoylpiperidin-4-yl)methanamine as the Extracellular Regulated Kinases 1/2 (ERK1/2) Phosphorylation-Preferring Serotonin 5-HT Receptor-Biased Agonists with Robust Antidepressant-like Activity” (J Med Chem, 2019)
